Patent US8852876B2, “Label free biosensors and cells” (Corning Incorporated, priority 2008, dated 2014)

Tests used:
[1] = system: actin filaments in A431 cells; assay: Texas Red-phalloidin fluorescence imaging; type: cell-based, human; conditions: 100 nM trypsin or 40 unit/ml thrombin; ~95% confluency
Method: Cells were grown on Corning® Epic™ 96 well biosensor microplates, starved for overnight with serum-free DMEM medium, chased with either trypsin or thrombin for certain time, fixed with 4% paraformaldehyde, permeabilized in phosphate-buffered saline (PBS) containing 0.2% Triton, and blocked with 1% bovine serum albumin (BSA). Afterwards, cells were incubated with 0.5 μM Texas Red-labeled phalloidin for 1 h at room temperature, and washed. After final washes and mounting, cells were examined with a 40× objective, equipped in a Zeiss Axioplan fluorescence microscope.

[2] = target: T1, PAR1 receptor (Cricetulus griseus, UniProt A0A8C2QJ57); assay: Endpoint wavelength-shift measurement, 384 well biosensor plate; type: cell-based, Chinese hamster; conditions: CHO cells; 5 minutes after addition
T1 construct: The PAR1 receptor is endogenously expressed in CHO cells; endogenous in cells; host or cells: CHO
T1 sequence (A0A8C2QJ57 22-428): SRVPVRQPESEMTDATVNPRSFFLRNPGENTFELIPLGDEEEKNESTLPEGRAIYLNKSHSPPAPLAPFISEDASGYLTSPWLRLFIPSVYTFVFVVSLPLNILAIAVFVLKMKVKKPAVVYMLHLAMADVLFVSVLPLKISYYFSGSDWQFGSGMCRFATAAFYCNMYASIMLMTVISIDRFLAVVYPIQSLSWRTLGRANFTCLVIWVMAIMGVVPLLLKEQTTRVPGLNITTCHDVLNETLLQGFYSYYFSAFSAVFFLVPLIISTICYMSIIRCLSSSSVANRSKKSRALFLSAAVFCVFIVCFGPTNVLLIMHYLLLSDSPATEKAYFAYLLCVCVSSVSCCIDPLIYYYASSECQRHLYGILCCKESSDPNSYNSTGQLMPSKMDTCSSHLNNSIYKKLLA
Method: The two time points were right before the compound addition (the baseline point), and 5 minutes after the compound addition (the measured point). The difference between two endpoints reflects the total amplitude of the P-DMR event mediated by thrombin—a PAR1 receptor agonist. Here a different cell line—CHO cells was used. The PAR1 receptor is endogenously expressed in CHO cells. The cells become partially quiescent by culturing the cells in the DMEM medium for 4 hours before the thrombin stimulation. In this example, a 384 well Coring Epic biosensor plate was used. Each well contains CHO cells with a confluency of ˜90%. Half of the wells were treated with thrombin at 40 unit/ml, whereas other half of the wells were treated with the buffer HBSS only. Since the agonist-induced activation of both B2 in A431 and PAR1 in CHO cells leads to Gq signaling, the significance of this assay results is that the Gq-type optical signature is at least universal in both cell lines. By using similar endpoint measurements, one is able to screen GPCR modulators against different endogenous targets in different cells.
The two time points were right before the compound addition (the baseline point), and 5 minutes after the compound addition (the measured point). The CHO cells were treated with thrombin at different doses. […]

[3] = target: T2, protease activated receptors PAR1 and PAR2 (Homo sapiens, UniProt P25116); type: cell-based; conditions: quiescent A431; n=3
T2 construct: A431 cells which endogenously express PAR1 and PAR2; endogenous in cells; host or cells: A431
T2 sequence (P25116 22-425): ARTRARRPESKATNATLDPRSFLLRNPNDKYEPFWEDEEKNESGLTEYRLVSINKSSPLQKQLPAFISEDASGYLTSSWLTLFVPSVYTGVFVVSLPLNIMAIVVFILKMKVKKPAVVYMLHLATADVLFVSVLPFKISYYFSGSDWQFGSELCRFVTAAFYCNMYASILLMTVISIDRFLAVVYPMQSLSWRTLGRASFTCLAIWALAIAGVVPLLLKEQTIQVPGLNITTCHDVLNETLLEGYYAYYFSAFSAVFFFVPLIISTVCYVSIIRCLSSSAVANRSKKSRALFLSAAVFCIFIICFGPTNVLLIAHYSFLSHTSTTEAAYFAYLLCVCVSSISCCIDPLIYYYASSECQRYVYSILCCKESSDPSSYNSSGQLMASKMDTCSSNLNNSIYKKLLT
How it was run: (§1)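 A431 cells at passage 3-5 grown in DMEM/10% FBS at 37° C, 5% CO2 to ~95% confluency (~2-4 days). Compounds and PAR agonists prepared in 1×HBSS to match the refractive index of the cell medium for dynamic mass redistribution (DMR) read-out.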

[4] = system: protease activated receptors PAR1 and PAR2; type: cell-based, human; conditions: interval about 1 hour
How it was run: as §1

[5] = system: endogenous GPCRs in A431 cells; assay: DMR optical biosensor profiling of GPCR agonists; type: cell-based, human; conditions: quiescent A431; first class = Gq-type, second = Gs-type, third = Gi-type, fourth = no significant DMR
Method: Human epidermoid carcinoma A431 cells (American Type Cell Culture) were grown in Dulbecco's modified Eagle's medium (DMEM) supplemented with 10% fetal bovine serum (FBS), 4.5 g/liter glucose, 2 mM glutamine, and antibiotics. ˜3-7.5×10^4 cells at passage 3 to 5 suspended in 200 μl the DMEM medium containing 10% FBS were placed in each well of a 96 well microplate. Similarly ˜1-2×10^4 cells in 50 μl the growth medium were placed in each well of a 384 well microplate. After cell seeding, the cells were cultured at 37° C. under air/5% CO2 until ˜95% confluency was reached (˜2-4 days).
A Corning® Epic™ angular interrogation system with transverse magnetic or p-polarized TM0 mode was used for all studies. Several extra actions were taken to minimize the unwanted effects. First, to minimize the bulk index changes when a compound solution is introduced, 1×HBSS buffer without any probenecid was used to dilute all the compounds, whereas the DMEM buffer only was used to starve the cells. Secondly, to facilitate the cell responses as well as to rapidly reach a steady state when the sensor plates having cells were placed in the system at room temperature, the cells were pre-starved with the DMEM buffer without any FBS for a prolonged period of time (typically 20±2 hours), and the quiescent cells were directly used for assays without any wash.
For kinetics measurements, the cultured cells (˜95% confluency) were starved for about 20 hours with DMEM alone at 37° C. under air/5% CO2. Afterwards, the sensor microplate containing cells was placed into the optical system, and the cell responses were recorded before and after addition of a solution at room temperature. […] All studies were carried out at room temperature with the lid of the microplate on except for a short period of time (˜seconds) when the solution was introduced, in order to minimize the effect of temperature fluctuation and evaporative cooling. The unit of the responses indicated herein was a change in pixel of the central position of the resonant band of each sensor as imaged by a CCD camera; 1 unit equals to ˜5.82×10^−4 refractive index changes, based on an experimental normalization protocol, which uses the concentration-dependent responses of both glycerol and dimethyl sulfoxide.
The panel of agonists were used individually to stimulate quiescent A431 cells. The dose-dependent and kinetic responses were recorded and analyzed. In a typical kinetic measurement, the angular shift of resonant lights of each sensor induced by an agonist is monitored in real time and plotted as a function of time. An increased signal (P-DMR) means an increase in the amount of bio-molecules within the sensing volume (˜120 nm); conversely, a decreased signal (N-DMR) means a decrease in the amount of bio-molecules within the sensing volume. The sensing volume, also known as penetration depth, is an intrinsic property of the coupled light within the waveguide film, which creates an evanescent wave extending into the cell layer and the medium.

[6] = system: protease activated receptors PAR1 and PAR2; assay: Fluo-3 Ca2+ mobilization assay with PAR agonists; type: cell-based, human
How it was run: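 A431 cells (passage 3–5), serum-starved overnight, loaded with 4 μM Fluo-3 for 1 h in HBSS/20 mM HEPES pH 7.0 with 2.5 mM probenecid. PAR agonist added and calcium fluorescence recorded over 6 min at 6 s intervals, room temperature.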

Apparent EC50 (endpoint wavelength shift) [2]: 12.5 unit/ml
Apparent EC50 (P-DMR amplitude, Gq-type) [3]: 9.6±2.0 unit/ml
Concentration required to induce a maximal response ([6]; [Ca2+]i): 40 unit/ml
EC50 of [Ca2+]i increase ([6]; quiescent A431, Fluo-3): 6±1 unit/ml
Maximal [Ca2+]i elevation ([6]; quiescent A431, Fluo-3): 48.2±3.5%
EC50 ([6]; quiescent A431, Fluo-3, converted from unit/ml, read-out: EC50 of [Ca2+]i increase, equivalent): 60 ± 10 nM
Substance: thrombin
Reorganization of actin filaments [1]: triggered significant cytoskeletal reorganization after about 10 min
Effect of preceding stimulation on trypsin-induced DMR signal [4]: significantly suppresses but not completely eliminates the trypsin-induced DMR signal
Class of optical signature (DMR) induced by agonist [5]: first class of optical signatures
Effect of preceding stimulation on thrombin-mediated [Ca2+]i elevation ([6]; 40 unit/ml thrombin twice): totally blocked the [Ca^2+]i elevation mediated by 40 unit/ml thrombin
Effect of preceding stimulation on trypsin-induced [Ca2+]i elevation ([6]; interval 6 min, 200 nM trypsin): slightly suppressed the trypsin-induced [Ca^2+]i elevation
